We go through 25 molecules from patent US6777422B2, “Substituted tetrahydroisoquinolines as C5a receptor modulators” (Neurogen Corp., priority 2002, dated 2004).

One test deals with T1, human C5a receptor (Homo sapiens, UniProt P21730).
T1 construct: endogenous in cells; host or cells: U937 cells differentiated with 1 mM dibutyryl cAMP
T1 sequence (P21730 1-350): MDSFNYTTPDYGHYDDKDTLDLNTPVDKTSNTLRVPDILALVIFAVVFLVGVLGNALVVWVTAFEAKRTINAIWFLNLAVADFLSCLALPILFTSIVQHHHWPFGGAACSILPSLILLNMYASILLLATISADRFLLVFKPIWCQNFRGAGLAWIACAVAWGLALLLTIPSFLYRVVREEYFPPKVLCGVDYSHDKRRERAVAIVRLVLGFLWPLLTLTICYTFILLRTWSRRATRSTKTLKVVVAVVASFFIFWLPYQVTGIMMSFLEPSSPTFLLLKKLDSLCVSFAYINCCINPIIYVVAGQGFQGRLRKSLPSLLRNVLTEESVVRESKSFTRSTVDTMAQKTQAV
The experiment in a line: C5a receptor mediated calcium mobilization assay (Example 20). It counts as cell-based. Particulars: differentiated U937 cells, read-out: Ca2+ (Ki in the standard assay of C5a receptor mediated calcium mobilization). The method, then: Calcium Mobilization Assays
U937 cells are grown in differentiation media (1 mM dibutyryl cAMP in RPMI 1640 medium containing 10% fetal bovine serum) for 48 hrs at 37° C. then reseeded onto 96-well plates suitable for use in a FLIPR™ Plate Reader (Molecular Devices Corp., Sunnyvale Calif.). Cells are grown an additional 24 hours (to 70-90% confluence) before the assay. The cells are then washed once with Krebs Ringer solution. FLUO-3 calcium sensitive dye (Molecular Probes, Inc. Eugene, Oreg.) is added to 10 μg/mL and incubated with the cells at room temperature for 1 to 2 hours. The 96 well plates are then washed to remove excess dye. Fluorescence responses, measured by excitation at 480 nm and emission at 530 nm, are monitored upon the addition of human C5a to the cells to a final concentration of 0.01-30.0 nM, using the FLIPR™ device (Molecular Devices).
C. Assays for the Identification of Receptor Modulatory Agents: Antagonists and Agonists
The calcium mobilization assay described above may be readily adapted for identifying test compounds that have agonist or antagonist activity at the human C5a receptor.
For example, in order to identify antagonist compounds, differentiated U937 cells are washed and incubated with Fluo-3 dye as described above. One hour prior to measuring the fluorescence signal, a subset of the cells is incubated with 1 μM of at least one compound to be tested. The fluorescence response upon the subsequent addition of 0.3 nM (final concentration) human recombinant C5a is monitored using the FLIPR™ plate reader. Antagonist compounds elicit at least a 2-fold decrease in the fluorescence response relative to that measured in the presence of human C5a alone. Preferred antagonist compounds elicit at least a 5-fold, preferably at least a 10-fold, and more preferably at least a 20-fold decrease in the fluorescence response relative to that measured in the presence of human C5a alone.
As to `COc1cncc(CN(C(=O)[C@H](C)N2CCc3ccccc3[C@@H]2c2cccc3ccccc23)C2Cc3ccccc3C2)c1` [Compound 127, (2S)-N-(indan-2-yl)-N-[(5-methoxypyridin-3-yl)methyl]-2-[(1R)-1-(1-naphthyl)-3,4-dihydroisoquinolin-2(1H)-yl]propanamide], the Ki was below 1000 nM.

Turning to `C[C@@H](C(=O)N(Cc1ccccc1F)C1Cc2ccccc2C1)N1CCc2ccccc2[C@@H]1c1ccccc1Cl` [Compound 64, (2S)-2-[(1R)-1-(2-chlorophenyl)-3,4-dihydroisoquinolin-2(1H)-yl]-N-(indan-2-yl)-N-(2-fluorobenzyl)propanamide], the Ki is below 1000 nM.

Consider `Cc1ccccc1C1c2ccccc2CCN1Cc1cnc(-c2ccccc2)n1C1Cc2ccccc2C1` (stereo not shown) [Compound 33, 2-{[1-(indan-2-yl)-2-phenyl-1H-imidazol-5-yl]methyl}-1-(2-methylphenyl)-1,2,3,4-tetrahydroisoquinoline], for which the Ki was below 1000 nM.

Turning to `O=C(CN1CCc2ccccc2C1c1cccc2ccccc12)N(Cc1ccccc1F)C1Cc2ccccc2C1` (stereo not shown) [Compound 44, N-(indan-2-yl)-N-(2-fluorobenzyl)-2-[1-(1-naphthyl)-3,4-dihydroisoquinolin-2(1H)-yl]acetamide], the Ki is below 1000 nM.

As for `O=C(CN1CCc2ccccc2C1c1c(F)cccc1C(F)(F)F)N(Cc1ccccc1F)C1Cc2ccccc2C1` (stereo not shown) [Compound 99, N-(indan-2-yl)-N-(2-fluorobenzyl)-2-[1-[2-fluoro-6-(trifluoromethyl)phenyl]-3,4-dihydroisoquinolin-2(1H)-yl]acetamide], the Ki is below 1000 nM.

`Cc1ccc(C)c([C@@H]2c3ccccc3CCN2CC(=O)N(Cc2ccccc2F)C2Cc3ccccc3C2)c1` (stereo in doubt) [Compound 49, N-(indan-2-yl)-2-[1-(2,5-dimethylphenyl)-3,4-dihydroisoquinolin-2(1H)-yl]-N-(2-fluorobenzyl)acetamide]: the Ki is below 1000 nM.

`O=C(CN1CCc2ccccc2C1c1c(F)cccc1Cl)N(Cc1ccccc1F)C1Cc2ccccc2C1` (stereo not shown) [Compound 96, 2-[1-(2-chloro-6-fluorophenyl)-3,4-dihydroisoquinolin-2(1H)-yl]-N-(indan-2-yl)-N-(2-fluorobenzyl)acetamide]: the Ki is below 1000 nM.

As for `Cc1cccc(C2c3ccccc3CCN2CC(=O)N(Cc2ccccc2F)C2Cc3ccccc3C2)c1Cl` (stereo not shown) [Compound 47, 2-[1-(2-chloro-3-methylphenyl)-3,4-dihydroisoquinolin-2(1H)-yl]-N-(indan-2-yl)-N-(2-fluorobenzyl)acetamide], the Ki was below 1000 nM.

As to `C[C@@H](C(=O)N(Cc1ccccc1F)C1Cc2ccccc2C1)N1CCc2ccccc2[C@@H]1c1ccccc1Br` [Compound 70, (2S)-2-[(1R)-1-(2-bromophenyl)-3,4-dihydroisoquinolin-2(1H)-yl]-N-(indan-2-yl)-N-(2-fluorobenzyl)propanamide], the Ki is below 1000 nM.

Consider `Cc1ccccc1[C@H]1c2ccccc2CCN1CC(=O)N(Cc1cccc(O)c1)C1Cc2ccccc2C1` [Compound 113, N-(indan-2-yl)-N-(3-hydroxybenzyl)-2-[(1S)-1-(2-methylphenyl)-3,4-dihydroisoquinolin-2(1H)-yl]acetamide], for which the Ki is below 1000 nM.

Regarding `Cc1ccc2ccccc2c1C1c2ccccc2CCN1CC(=O)N(Cc1ccccc1F)C1Cc2ccccc2C1` (stereo not shown) [Compound 83, N-(indan-2-yl)-N-(2-fluorobenzyl)-2-[1-(2-methyl-1-naphthyl)-3,4-dihydroisoquinolin-2(1H)-yl]acetamide], the Ki is below 1000 nM.

As for `C[C@@H](C(=O)N(CCc1ccc(O)cc1)Cc1ccccc1F)N1CCc2ccccc2[C@@H]1c1cccc2ccccc12` [Compound 118, (2S)-N-(2-fluorobenzyl)-N-[2-(4-hydroxyphenyl)ethyl]-2-[(1R)-1-(1-naphthyl)-3,4-dihydroisoquinolin-2(1H)-yl]propanamide], the Ki was below 1000 nM.

For the molecule `Cc1cc(CN(C(=O)[C@H](C)N2CCc3ccccc3[C@@H]2c2ccccc2Cl)C2Cc3ccccc3C2)cc(C)c1O` [Compound 106, (2S)-2-[(1R)-1-(2-chlorophenyl)-3,4-dihydroisoquinolin-2(1H)-yl]-N-(indan-2-yl)-N-(4-hydroxy-3,5-dimethylbenzyl)propanamide], the Ki is below 1000 nM.

For `Cc1ccccc1C1c2c(Cl)cccc2CCN1CC(=O)N(Cc1ccccc1F)C1Cc2ccccc2C1` (stereo not shown) [Compound 116, 2-[8-chloro-1-(2-methylphenyl)-3,4-dihydroisoquinolin-2(1H)-yl]-N-(indan-2-yl)-N(2-fluorobenzyl)acetamide], the Ki was below 1000 nM.

On to `CCC1(c2ccccc2C)c2ccccc2CCN1CC(=O)N(Cc1ccccc1F)C1Cc2ccccc2C1` (stereo not shown) [Compound 16, N-(indan-2-yl)-2-[1-ethyl-1-(2-methylphenyl)-3,4-dihydroisoquinolin-2(1H)-yl]-N-(2-fluorobenzyl)acetamide], for which the Ki was below 1000 nM.

In the case of `O=C(CN1CCc2ccccc2C1c1ccc(F)cc1C(F)(F)F)N(Cc1ccccc1F)C1Cc2ccccc2C1` (stereo not shown) [Compound 37, N-(indan-2-yl)-N-(2-fluorobenzyl)-2-[1-[4-fluoro-2-(trifluoromethyl)phenyl]-3,4-dihydroisoquinolin-2(1H)-yl]acetamide], the Ki was below 1000 nM.

With `O=C(CN1CCc2ccccc2C1c1cccc(C(F)(F)F)c1)N(Cc1ccccc1F)C1Cc2ccccc2C1` (stereo not shown) [Compound 50, N-(indan-2-yl)-N-(2-fluorobenzyl)-2-[1-[3-(trifluoromethyl)phenyl]-3,4-dihydroisoquinolin-2(1H)-yl]acetamide], the Ki is below 1000 nM.

Take `COc1ccc2c(c1)CC(N(Cc1ccccc1F)C(=O)CN1CCc3ccccc3C1c1ccccc1C(F)(F)F)C2` (stereo not shown) [Compound 94, N-(2-fluorobenzyl)-N-(5-methoxy-indan-2-yl)-2-[1-[2-(trifluoromethyl)phenyl]-3,4-dihydroisoquinolin-2(1H)-yl]acetamide]: the Ki is below 1000 nM.

Turning to `Cc1ccccc1C1c2ccccc2CCN1CC(=O)N(Cc1ccccc1F)C1Cc2ccccc2C1` (stereo in doubt) [Compound 28, N-(indan-2-yl)-N-(2-fluorobenzyl)-2-[(1S)-1-(2-methylphenyl)-3,4-dihydroisoquinolin-2(1H)-yl]acetamide], the Ki is below 1000 nM.

Regarding `C[C@@H](C(=O)N(CCc1c[nH]c2ccccc12)Cc1ccccc1F)N1CCc2ccccc2[C@@H]1c1cccc2ccccc12` [Compound 119, (2S)-N-(2-fluorobenzyl)-N-[2-(1H-indol-3-yl)ethyl]-2-[(1R)-1-(1-naphthyl)-3,4-dihydroisoquinolin-2(1H)-yl]propanamide], the Ki is below 1000 nM.

On to `Cc1cccc(C)c1[C@H]1c2ccccc2CCN1[C@@H](C)C(=O)N(Cc1ccccc1F)C1Cc2ccccc2C1` [Compound 71, (2S)-N-(indan-2-yl)-2-[(1R)-1-(2,6-dimethylphenyl)-3,4-dihydroisoquinolin-2(1H)-yl]-N-(2-fluorobenzyl)propanamide], for which the Ki is below 1000 nM.

For `C[C@@H](C(=O)N(CCc1ccccc1F)Cc1ccc(O)cc1)N1CCc2ccccc2[C@@H]1c1ccccc1Cl` [Compound 104, (2S)-2-[(1R)-1-(2-chlorophenyl)-3,4-dihydroisoquinolin-2(1H)-yl]-N-[2-(2-fluorophenyl)ethyl]-N-(4-hydroxybenzyl)propanamide], the Ki is below 1000 nM.

In the case of `Cc1ccccc1[C@@H]1c2c(ccc(C)c2C)CCN1CC(=O)N(Cc1ccccc1F)C1Cc2ccccc2C1` (stereo in doubt) [Compound 73, N-(indan-2-yl)-2-[7,8-dimethyl-1-(2-methylphenyl)-3,4-dihydroisoquinolin-2(1H)-yl]-N-(2-fluorobenzyl)acetamide], the Ki is below 1000 nM.

Take `C[C@@H](C(=O)N(Cc1cccc([N+](=O)[O-])c1)C1Cc2ccccc2C1)N1CCc2ccccc2[C@@H]1c1ccccc1Cl` [Compound 112, (2S)-2-[(1R)-1-(2-chlorophenyl)-3,4-dihydroisoquinolin-2(1H)-yl]-N-(indan-2-yl)-N-(3-nitrobenzyl)propanamide]: the Ki is below 1000 nM.

The test is the same for the next values; noted with them: differentiated U937 cells, unit inferred, read-out: Ca2+ (numeric value, C5a receptor mediated calcium mobilization).
On to `Cc1ccccc1[C@@H]1C2=C(CCCC2)CCN1CC(=O)N(Cc1ccccc1F)C1Cc2ccccc2C1` (stereo in doubt) [Compound 131, N-(2-Fluoro-benzyl)-N-indan-2-yl-2-(1-o-tolyl-3,4,5,6,7,8-hexahydro-1H-isoquinolin-2-yl)-acetamide], for which the Ki was 13.1 nM.
